# Values joined by “and” are separate entries in the source; they are usually repeats but may differ in a detail not shown here. Equal entries are not always repeated. ± gives the expanded uncertainty stated by the source.
# Experiment: molar heat capacity at constant pressure
# Settings: 101.33 kPa, Crystal, Small (less than 1 g) adiabatic calorimetry
smiles,measurement,setting,value
O.O.O.O.O.O=S(=O)([O-])[O-].[Cu+2] [copper(II) sulfate pentahydrate],molar heat capacity at constant pressure,195.86 K,210.72 ± 1.1 J/K/mol
same,molar heat capacity at constant pressure,196.02 K,208.8 ± 1.1 J/K/mol
same,molar heat capacity at constant pressure,196.2 K,210.85 ± 1.1 J/K/mol
same,molar heat capacity at constant pressure,196.62 K,212.01 ± 1.1 J/K/mol
same,molar heat capacity at constant pressure,196.78 K,210.59 ± 1.1 J/K/mol
same,molar heat capacity at constant pressure,196.97 K,211.56 ± 1.1 J/K/mol
same,molar heat capacity at constant pressure,197.34 K,208.77 ± 0.81 J/K/mol
same,molar heat capacity at constant pressure,197.52 K,212.45 ± 1.1 J/K/mol
same,molar heat capacity at constant pressure,197.54 K,211.37 ± 1.1 J/K/mol
same,molar heat capacity at constant pressure,197.92 K,209.01 ± 0.81 J/K/mol
same,molar heat capacity at constant pressure,198.12 K,212.62 ± 1.1 J/K/mol
same,molar heat capacity at constant pressure,198.28 K,211.94 ± 1.1 J/K/mol
same,molar heat capacity at constant pressure,198.86 K,213.01 ± 1.1 J/K/mol
same,molar heat capacity at constant pressure,199.03 K,212.84 ± 1.1 J/K/mol
same,molar heat capacity at constant pressure,199.23 K,213.44 ± 1.1 J/K/mol
same,molar heat capacity at constant pressure,199.77 K,213.38 ± 1.1 J/K/mol
same,molar heat capacity at constant pressure,199.89 K,214.1 ± 1.1 J/K/mol
same,molar heat capacity at constant pressure,200 K,210.9 ± 0.8 J/K/mol
same,molar heat capacity at constant pressure,200.02 K,210.29 ± 0.82 J/K/mol
same,molar heat capacity at constant pressure,200.18 K,214.5 ± 1.1 J/K/mol
same,molar heat capacity at constant pressure,200.35 K,215.02 ± 1.1 J/K/mol
same,molar heat capacity at constant pressure,200.44 K,211.49 ± 0.82 J/K/mol
same,molar heat capacity at constant pressure,200.5 K,214.14 ± 1.1 J/K/mol
same,molar heat capacity at constant pressure,201.23 K,214.77 ± 1.1 J/K/mol
same,molar heat capacity at constant pressure,201.49 K,215.23 ± 1.1 J/K/mol
same,molar heat capacity at constant pressure,201.51 K,215.2 ± 1.1 J/K/mol
same,molar heat capacity at constant pressure,201.96 K,215.31 ± 1.1 J/K/mol
same,molar heat capacity at constant pressure,202.12 K,212.11 ± 0.82 J/K/mol
same,molar heat capacity at constant pressure,202.61 K,217.02 ± 1.1 J/K/mol
same,molar heat capacity at constant pressure,202.68 K,216.55 ± 1.1 J/K/mol
same,molar heat capacity at constant pressure,202.83 K,216.31 ± 1.1 J/K/mol
same,molar heat capacity at constant pressure,203.14 K,217.49 ± 1.1 J/K/mol
same,molar heat capacity at constant pressure,203.42 K,216.87 ± 1.1 J/K/mol
same,molar heat capacity at constant pressure,203.52 K,214.16 ± 0.83 J/K/mol
same,molar heat capacity at constant pressure,203.74 K,217.35 ± 1.1 J/K/mol
same,molar heat capacity at constant pressure,204.14 K,217.62 ± 1.1 J/K/mol
same,molar heat capacity at constant pressure,204.2 K,218.19 ± 1.1 J/K/mol
same,molar heat capacity at constant pressure,204.22 K,214.4 ± 0.83 J/K/mol
same,molar heat capacity at constant pressure,204.87 K,218.11 ± 1.1 J/K/mol and 218.14 ± 1.1 J/K/mol
same,molar heat capacity at constant pressure,205.53 K,218.8 ± 1.1 J/K/mol
same,molar heat capacity at constant pressure,205.59 K,218.93 ± 1.1 J/K/mol
same,molar heat capacity at constant pressure,205.99 K,219.33 ± 1.1 J/K/mol
same,molar heat capacity at constant pressure,206.31 K,219.39 ± 1.1 J/K/mol
same,molar heat capacity at constant pressure,206.33 K,215.55 ± 0.83 J/K/mol
same,molar heat capacity at constant pressure,206.4 K,220.52 ± 1.1 J/K/mol
same,molar heat capacity at constant pressure,206.59 K,216.64 ± 0.83 J/K/mol
same,molar heat capacity at constant pressure,206.85 K,220.61 ± 1.1 J/K/mol
same,molar heat capacity at constant pressure,207.02 K,220.58 ± 1.1 J/K/mol
same,molar heat capacity at constant pressure,207.11 K,220.48 ± 1.1 J/K/mol
same,molar heat capacity at constant pressure,207.81 K,220.88 ± 1.1 J/K/mol
same,molar heat capacity at constant pressure,208.18 K,221.52 ± 1.1 J/K/mol
same,molar heat capacity at constant pressure,208.23 K,222.38 ± 1.1 J/K/mol
same,molar heat capacity at constant pressure,208.45 K,218.01 ± 0.83 J/K/mol
same,molar heat capacity at constant pressure,208.52 K,222.44 ± 1.1 J/K/mol
same,molar heat capacity at constant pressure,209.24 K,222.92 ± 1.1 J/K/mol
same,molar heat capacity at constant pressure,209.37 K,222.88 ± 1.1 J/K/mol
same,molar heat capacity at constant pressure,209.5 K,223.33 ± 1.1 J/K/mol
same,molar heat capacity at constant pressure,209.64 K,219.18 ± 0.84 J/K/mol
same,molar heat capacity at constant pressure,209.68 K,223.6 ± 1.1 J/K/mol
same,molar heat capacity at constant pressure,209.96 K,223.05 ± 1.1 J/K/mol
same,molar heat capacity at constant pressure,210 K,219.4 ± 0.9 J/K/mol
same,molar heat capacity at constant pressure,210.49 K,223.26 ± 1.1 J/K/mol
same,molar heat capacity at constant pressure,210.58 K,219.18 ± 0.84 J/K/mol
same,molar heat capacity at constant pressure,210.67 K,223.74 ± 1.1 J/K/mol
same,molar heat capacity at constant pressure,210.83 K,223.72 ± 1.1 J/K/mol
same,molar heat capacity at constant pressure,211.38 K,224.39 ± 1.1 J/K/mol
same,molar heat capacity at constant pressure,211.61 K,224.89 ± 1.1 J/K/mol
same,molar heat capacity at constant pressure,212.1 K,224.82 ± 1.1 J/K/mol
same,molar heat capacity at constant pressure,212.14 K,225.35 ± 1.1 J/K/mol
same,molar heat capacity at constant pressure,212.68 K,221.85 ± 0.85 J/K/mol
same,molar heat capacity at constant pressure,212.7 K,220.97 ± 0.84 J/K/mol
same,molar heat capacity at constant pressure,212.75 K,225.67 ± 1.1 J/K/mol
same,molar heat capacity at constant pressure,212.81 K,225.63 ± 1.1 J/K/mol
same,molar heat capacity at constant pressure,212.95 K,226.54 ± 1.1 J/K/mol
same,molar heat capacity at constant pressure,213.47 K,226.67 ± 1.1 J/K/mol
same,molar heat capacity at constant pressure,213.52 K,226.64 ± 1.1 J/K/mol
same,molar heat capacity at constant pressure,213.88 K,226.4 ± 1.1 J/K/mol
same,molar heat capacity at constant pressure,214.25 K,227.02 ± 1.1 J/K/mol
same,molar heat capacity at constant pressure,214.8 K,227.75 ± 1.2 J/K/mol
same,molar heat capacity at constant pressure,214.83 K,222.9 ± 0.85 J/K/mol
same,molar heat capacity at constant pressure,214.96 K,227.58 ± 1.2 J/K/mol
same,molar heat capacity at constant pressure,215 K,227.95 ± 1.1 J/K/mol
same,molar heat capacity at constant pressure,215.67 K,228.21 ± 1.1 J/K/mol
same,molar heat capacity at constant pressure,215.69 K,224.43 ± 0.86 J/K/mol
same,molar heat capacity at constant pressure,216.13 K,230.23 ± 1.1 J/K/mol
same,molar heat capacity at constant pressure,216.19 K,228.74 ± 1.1 J/K/mol
same,molar heat capacity at constant pressure,216.23 K,229.64 ± 1.1 J/K/mol
same,molar heat capacity at constant pressure,216.38 K,229.09 ± 1.1 J/K/mol
same,molar heat capacity at constant pressure,216.96 K,224.83 ± 0.86 J/K/mol
same,molar heat capacity at constant pressure,217.1 K,229.55 ± 1.1 J/K/mol
same,molar heat capacity at constant pressure,217.31 K,230.09 ± 1.1 J/K/mol
same,molar heat capacity at constant pressure,217.46 K,230.34 ± 1.1 J/K/mol
same,molar heat capacity at constant pressure,217.81 K,229.9 ± 1.1 J/K/mol
same,molar heat capacity at constant pressure,218.45 K,231.22 ± 1.2 J/K/mol
same,molar heat capacity at constant pressure,218.51 K,230.59 ± 1.1 J/K/mol
same,molar heat capacity at constant pressure,218.69 K,227.07 ± 0.86 J/K/mol
same,molar heat capacity at constant pressure,218.79 K,231.49 ± 1.2 J/K/mol
same,molar heat capacity at constant pressure,219.1 K,226.58 ± 0.86 J/K/mol
same,molar heat capacity at constant pressure,219.27 K,231.87 ± 1.2 J/K/mol
same,molar heat capacity at constant pressure,219.52 K,232.65 ± 1.2 J/K/mol
same,molar heat capacity at constant pressure,219.6 K,231.9 ± 1.2 J/K/mol
same,molar heat capacity at constant pressure,219.98 K,232.07 ± 1.2 J/K/mol
same,molar heat capacity at constant pressure,220 K,228 ± 0.9 J/K/mol
same,molar heat capacity at constant pressure,220.12 K,232.93 ± 1.2 J/K/mol
same,molar heat capacity at constant pressure,220.68 K,232.63 ± 1.2 J/K/mol
same,molar heat capacity at constant pressure,220.72 K,233.3 ± 1.2 J/K/mol
same,molar heat capacity at constant pressure,221.23 K,229.07 ± 0.87 J/K/mol
same,molar heat capacity at constant pressure,221.39 K,233.36 ± 1.2 J/K/mol
same,molar heat capacity at constant pressure,221.44 K,233.44 ± 1.2 J/K/mol
same,molar heat capacity at constant pressure,221.67 K,229.65 ± 0.87 J/K/mol
same,molar heat capacity at constant pressure,221.86 K,234.58 ± 1.2 J/K/mol
same,molar heat capacity at constant pressure,222.09 K,234.58 ± 1.2 J/K/mol
same,molar heat capacity at constant pressure,222.76 K,235.19 ± 1.2 J/K/mol
same,molar heat capacity at constant pressure,222.81 K,235.64 ± 1.2 J/K/mol and 235.01 ± 1.2 J/K/mol
same,molar heat capacity at constant pressure,223 K,235.73 ± 1.2 J/K/mol
same,molar heat capacity at constant pressure,223.42 K,230.15 ± 0.87 J/K/mol
same,molar heat capacity at constant pressure,223.51 K,235.25 ± 1.2 J/K/mol
same,molar heat capacity at constant pressure,224.08 K,236.48 ± 1.2 J/K/mol
same,molar heat capacity at constant pressure,224.14 K,236.55 ± 1.2 J/K/mol
same,molar heat capacity at constant pressure,224.22 K,235.98 ± 1.2 J/K/mol
same,molar heat capacity at constant pressure,224.64 K,232.13 ± 0.87 J/K/mol
same,molar heat capacity at constant pressure,224.92 K,236.68 ± 1.2 J/K/mol
same,molar heat capacity at constant pressure,225.28 K,237.03 ± 1.2 J/K/mol
same,molar heat capacity at constant pressure,225.45 K,237.85 ± 1.2 J/K/mol
same,molar heat capacity at constant pressure,225.57 K,231.89 ± 0.87 J/K/mol
same,molar heat capacity at constant pressure,225.62 K,237.74 ± 1.2 J/K/mol
same,molar heat capacity at constant pressure,226.1 K,239.21 ± 1.2 J/K/mol
same,molar heat capacity at constant pressure,226.33 K,238.26 ± 1.2 J/K/mol
same,molar heat capacity at constant pressure,226.41 K,238.72 ± 1.2 J/K/mol
same,molar heat capacity at constant pressure,226.77 K,238.57 ± 1.2 J/K/mol
same,molar heat capacity at constant pressure,227.03 K,238.58 ± 1.2 J/K/mol
same,molar heat capacity at constant pressure,227.55 K,239.68 ± 1.2 J/K/mol
same,molar heat capacity at constant pressure,227.61 K,234.56 ± 0.88 J/K/mol
same,molar heat capacity at constant pressure,227.72 K,233.69 ± 0.88 J/K/mol
same,molar heat capacity at constant pressure,227.73 K,239.34 ± 1.2 J/K/mol
same,molar heat capacity at constant pressure,228.08 K,239.61 ± 1.2 J/K/mol
same,molar heat capacity at constant pressure,228.43 K,239.99 ± 1.2 J/K/mol
same,molar heat capacity at constant pressure,228.69 K,240.1 ± 1.2 J/K/mol
same,molar heat capacity at constant pressure,229.13 K,241.13 ± 1.2 J/K/mol
same,molar heat capacity at constant pressure,229.38 K,242.74 ± 1.2 J/K/mol and 240.91 ± 1.2 J/K/mol
same,molar heat capacity at constant pressure,229.82 K,241.69 ± 1.2 J/K/mol
same,molar heat capacity at constant pressure,229.84 K,241.43 ± 1.2 J/K/mol
same,molar heat capacity at constant pressure,229.87 K,235.54 ± 0.88 J/K/mol
same,molar heat capacity at constant pressure,230 K,236.5 ± 0.9 J/K/mol
same,molar heat capacity at constant pressure,230.54 K,237.24 ± 0.89 J/K/mol
same,molar heat capacity at constant pressure,230.59 K,242.26 ± 1.2 J/K/mol
same,molar heat capacity at constant pressure,230.69 K,242.63 ± 1.2 J/K/mol
same,molar heat capacity at constant pressure,230.95 K,243.17 ± 1.2 J/K/mol
same,molar heat capacity at constant pressure,231.28 K,242.67 ± 1.2 J/K/mol
same,molar heat capacity at constant pressure,231.97 K,243.3 ± 1.2 J/K/mol
same,molar heat capacity at constant pressure,232 K,244.22 ± 1.2 J/K/mol
same,molar heat capacity at constant pressure,232.02 K,238.28 ± 0.89 J/K/mol
same,molar heat capacity at constant pressure,232.09 K,244.43 ± 1.2 J/K/mol
same,molar heat capacity at constant pressure,232.67 K,243.85 ± 1.2 J/K/mol
same,molar heat capacity at constant pressure,232.75 K,246.09 ± 1.2 J/K/mol
same,molar heat capacity at constant pressure,233.23 K,245.48 ± 1.2 J/K/mol
same,molar heat capacity at constant pressure,233.31 K,244.86 ± 1.2 J/K/mol
same,molar heat capacity at constant pressure,233.36 K,244.3 ± 1.2 J/K/mol
